The record followed here is ChEMBL document CHEMBL3745685, “An appraisal on recent medicinal perspective of curcumin degradant: Dehydrozingerone (DZG)” (Bioorg Med Chem, 2016).

The EC50 is the concentration giving half of the maximal effect. Usually inhibition in vivo stands for the share of the control response that was lost under treatment. The term MFC denotes the lowest tested concentration that kills the fungus rather than only halting it. A higher MFC goes with weaker fungicidal potency. One may read the MIC as the smallest concentration in the dilution series that meets the test's criterion for growth inhibition.

One data set deals with Spilarctia obliqua. Kind of data set: Insecticidal activity against third-instar larval stage of Spilosoma obliqua Walker assessed as growth inhibition after 24 hrs by leaf disc method. Format: functional, organism-based.
The subject of data set [1] is Raji. Kind of data set: Cytotoxicity against human Raji cells expressing EBV-EA assessed as inhibition of TPA-induced EBV-EA activation at 10 molar ratio after 48 hrs by trypan blue staining based immunofluorescence method relative to TPA. Format: functional.
Data set [2] is described as follows: Antioxidant activity assessed as DPPH radical scavenging activity incubated for 20 mins by spectrophotometry analysis. Format: physicochemical. Background: DPPH is a stable violet radical that fades when it is reduced.
The next data set deals with Brain. Kind of data set: Antioxidant activity in Wistar rat brain homogenate assessed as inhibition of Fe(II)-induced lipid peroxidation. Format: functional, tissue-based.
A short description of data set [3]: Potency index, ratio of alpha-tocopherol IC0.2 to compound IC0.2 for antioxidant activity by DPPH assay.
Data set [4] in a line: Antioxidant activity assessed as DPPH radical scavenging activity. Format: physicochemical.
The test system of data set [5] is Raji. Kind of data set: Cytotoxicity against human Raji cells expressing EBV-EA assessed as inhibition of TPA-induced EBV-EA activation at 38 molar ratio after 48 hrs by trypan blue staining based immunofluorescence method relative to TPA. Format: functional.
The test system of data set [6] is Raji. Kind of data set: Cytotoxicity against human Raji cells expressing EBV-EA assessed as inhibition of TPA-induced EBV-EA activation after 48 hrs by trypan blue staining based immunofluorescence method relative to TPA. Format: functional, cell-based.
For a further data set, the system named is Mus musculus. Kind of data set: Analgesic activity in albino mouse assessed as inhibition of acetic acid-induced writhing response at 1 mmol/kg relative to control. Format: functional. For orientation: Writhing tests count abdominal constrictions after an irritant is injected.
The next data set has as its system Rattus norvegicus. Kind of data set: Antiinflammatory activity in rat assessed as inhibition of carrageenan-induced paw edema relative to control. Format: functional. In general terms: The carrageenan paw model is a standard test of acute inflammation.
The next data set deals with OVCAR-8. Kind of data set: Resistance factor, ratio of IC50 for human multidrug resistant NCI/ADR-RES cells to IC50 for human OVCAR8 cells. Format: functional.
The subject of data set [7] is Aspergillus oryzae. Kind of data set: Fungicidal activity against Aspergillus oryzae MTCC 262 after 5 to 7 days by agar well diffusion method. Format: functional.
The subject of data set [8] is Fusarium oxysporum. Kind of data set: Antifungal activity against Fusarium oxysporum MTCC 1755 assessed as growth inhibition after 5 to 7 days by broth dilution method. Format: functional.
Data set [9] deals with Aspergillus flavus. Kind of data set: Fungicidal activity against Aspergillus flavus MTCC 277 after 5 to 7 days by agar well diffusion method. Format: functional.
Data set [10] has as its system Aspergillus niger. Kind of data set: Antifungal activity against Aspergillus niger MTCC 218 assessed as growth inhibition after 5 to 7 days by broth dilution method. Format: functional.
Data set [11] concerns Penicillium chrysogenum. Kind of data set: Antifungal activity against Penicillium chrysogenum MTCC 616 assessed as growth inhibition after 5 to 7 days by broth dilution method. Format: functional.
Data set [12] relates to Aspergillus ochraceus. Kind of data set: Antifungal activity against Aspergillus ochraceus MTCC 4643 assessed as growth inhibition after 5 to 7 days by broth dilution method. Format: functional.
The next data set concerns Rhizoctonia solani. Kind of data set: Antifungal activity against Rhizoctonia solani Kuhn assessed as growth inhibition after 2 to 3 days by poisoned food method. Format: functional, organism-based.
For data set [13], the system named is Aspergillus ochraceus. Kind of data set: Fungicidal activity against Aspergillus ochraceus MTCC 4643 after 5 to 7 days by agar well diffusion method. Format: functional.
Data set [14] can be described thus: Antioxidant activity assessed as ABTS free radical scavenging activity. Format: physicochemical.
In data set [15] the test system is Aspergillus flavus. Kind of data set: Antifungal activity against Aspergillus flavus MTCC 277 assessed as growth inhibition after 5 to 7 days by broth dilution method. Format: functional.
Data set [16] relates to Fusarium oxysporum. Kind of data set: Fungicidal activity against Fusarium oxysporum MTCC 1755 after 5 to 7 days by agar well diffusion method. Format: functional.
The subject of data set [17] is Aspergillus niger. Kind of data set: Fungicidal activity against Aspergillus niger MTCC 218 after 5 to 7 days by agar well diffusion method. Format: functional.
Data set [18] has as its system Aspergillus oryzae. Kind of data set: Antifungal activity against Aspergillus oryzae MTCC 262 assessed as growth inhibition after 5 to 7 days by broth dilution method. Format: functional.
The subject of data set [19] is Penicillium chrysogenum. Kind of data set: Fungicidal activity against Penicillium chrysogenum MTCC 616 after 5 to 7 days by agar well diffusion method. Format: functional.
Data set [20] in a line: Antiproliferative activity against human RPMI8226 cells assessed as growth inhibition at 10 uM after 48 hrs by MTT assay relative to control. Format: functional. Conditions: RPMI-8226, 48 h, read-out: GI.
Data set [21] is described as follows: Antiproliferative activity against human MM1S cells assessed as growth inhibition at 10 uM after 48 hrs by MTT assay relative to control. Format: functional. Conditions: MM1.S, read-out: GI.
Data set [22] is described as follows: Antiproliferative activity against human U266 cells assessed as growth inhibition at 10 uM after 48 hrs by MTT assay relative to control. Conditions: U-266, 48 h, read-out: GI. Format: functional.
For data set [23], the system named is Raji. Kind of data set: Cytotoxicity against human Raji cells expressing EBV-EA assessed as inhibition of TPA-induced EBV-EA activation at 500 molar ratio after 48 hrs by trypan blue staining based immunofluorescence method relative to TPA. Format: functional.
The next data set concerns NCI/ADR-RES. Kind of data set: Cytotoxicity against human multidrug resistant NCI/ADR-RES cells overexpressing P-gp assessed as reduction in cell viability by MTT assay. Format: functional, cell-based.
Data set [24] in a line: Cytotoxicity against human OVCAR8 cells assessed as reduction in cell viability by MTT assay. Format: functional, cell-based. Conditions: OVCAR-8.
Data set [25] concerns Raji. Kind of data set: Cytotoxicity against human Raji cells expressing EBV-EA assessed as inhibition of TPA-induced EBV-EA activation at 100 molar ratio after 48 hrs by trypan blue staining based immunofluorescence method relative to TPA. Format: functional.
Data set [26] is described as follows: Potency index, ratio of ascorbic acid IC0.2 to compound IC0.2 for antioxidant activity by DPPH assay.
The test system of data set [27] is Raji. Kind of data set: Cytotoxicity against human Raji cells expressing EBV-EA assessed as inhibition of TPA-induced EBV-EA activation at 1000 molar ratio after 48 hrs by trypan blue staining based immunofluorescence method relative to TPA. Format: functional.

≈ marks a conversion by molar mass, not a printed value.

In the case of `CCCCC/C=C/C(=O)/C=C/c1ccc(O)c(OC)c1`, the half-maximal effective concentration (EC50) in the data set on Spilarctia obliqua came to 3550 µg/mL (≈ 12.9 mM). As for `COc1ccc(/C=C/C(C)=O)c(OCC=C(C)C)c1`, the “inhibition (INH)” value with Raji [1] was 11%. With `COc1cc(/C=C/C(C)=O)ccc1OC1OC(CO)C(O)C(O)C1O` (stereo not drawn), the IC50 in data set [2] came out at 7500 µM. As to `CC(=O)/C=C/c1cccc(O)c1O`, the IC50 in the data set with Brain (Rattus norvegicus, Wistar, Brain) is 6.3 µM. Moreover, the Ratio in data set [3] is 2. For the same compound, the IC0.2 in data set [4] amounted to 3.2 µM. As to VITAMIN E, in the data set on Brain, the IC50 amounted to 2.5 µM. For the same compound, the IC0.2 in data set [4] came to 8.3 µM.

Regarding `C/C=C/c1ccc(O)c(OC)c1`, the “inhibition (INH)” value with Raji [5] was 50%.

Consider `CC(=O)CCc1ccccc1` [BENZYLACETONE], for which, in the data set on Raji [6], the IC50 came out at 222 molar ratio. Take `COc1cc(/C=C/C(=O)CC(=O)C(C)c2ccc(CC(C)C)cc2)ccc1O` (stereo not drawn): the inhibition in vivo at 1000 µmol/kg in the data set with Mus musculus was found to be 59%. For the same compound, the “inhibition (INH)” value in the data set on Rattus norvegicus is on record as 76%. Turning to `COc1ccc(/C=C/C(=O)/C=C/c2nc3cc(C)ccc3n2C)cc1O`, the “Ratio IC50” value with OVCAR-8 was 1.7. As to `COc1ccc(/C=C/C(C)=O)cc1OC`, the figures for the IC50 (with Raji [6]; in [2]) were 107 molar ratio and 20000 µM, respectively. For the compound `O=C1O[C@H]([C@@H](O)CO)C(O)=C1O` [ASCORBIC ACID], the IC0.2 in data set [4] amounted to 23.7 µM. Take `COc1cc(/C=C/C(C)=O)ccc1OC1OC(COC(C)=O)C(OC(C)=O)C(OC(C)=O)C1OC(C)=O` (stereo not drawn): the IC50 in [2] turned out to be 10000 µM. On to `COc1cc(/C=C/C(C)=O)ccc1O` [DEHYDROZINGERONE], for which the MFC against Aspergillus oryzae [7], against Aspergillus flavus [9], with Aspergillus ochraceus [13], in the data set with Fusarium oxysporum [16], in the data set with Aspergillus niger [17] and against Penicillium chrysogenum [19] was 880 µM (≈ 169 µg/mL) in each case. In addition, the MIC in the data set on Fusarium oxysporum [8], with Aspergillus niger [10], in the data set on Penicillium chrysogenum [11], in the data set with Aspergillus ochraceus [12], in the data set on Aspergillus flavus [15] and in the data set with Aspergillus oryzae [18] was 755 µM (≈ 145 µg/mL) throughout. Also, the IC50 with Raji [6] was 95 molar ratio; in [2] it was 300 µM; in data set [14] it was 8 µM. The EC50 with Rhizoctonia solani turned out to be 86.5 µg/mL (≈ 0.45 mM). With `COc1cc(/C=C/C(=O)/C=C/c2nc3cc(C)ccc3n2C)ccc1O`, in the data set with OVCAR-8, the “Ratio IC50” value came out at 1.7.

With `Cc1c(C)c2c(c(C)c1O)CCC(C)(C(=O)O)O2` (stereo not drawn) [TROLOX], the IC50 in [2] was found to be 260 µM.

For `COc1cc(/C=C/C(=O)CC(=O)/C=C/c2ccc(O)c(OC)c2)ccc1O` [CURCUMIN], the IC50 in the data set on Raji [6] came to 97 molar ratio. Regarding `COc1cc(/C=C/C(=O)C(=Cc2ccc3c(c2)C(=O)N(C2CCC(=O)NC2=O)C3=O)C(=O)/C=C/c2ccc(O)c(OC)c2)ccc1O` (stereo not drawn), the inhibition of growth at 10 µM in data set [20], in data set [21] and in data set [22] was at least 90% throughout. For the compound `COc1cccc(/C=C/C(C)=O)c1OCC=C(C)C`, in the data set on Raji [23], the “inhibition (INH)” value turned out to be 80%. In the case of `COc1cc(/C=C/C(=O)/C=C/c2nc3c(C)cccc3n2C)ccc1O`, the IC50 turned out to be 23.2 µM with NCI/ADR-RES and 0.7 µM in data set [24]. Further, the “Ratio IC50” value with OVCAR-8 is 33.1. As to `COc1ccc(/C=C/C(=O)/C=C/c2nc3cc(O)ccc3n2C)cc1O`, the “Ratio IC50” value in the data set with OVCAR-8 is given as 1.4. In the case of `COc1ccc(/C=C/C(C)=O)cc1OCC=C(C)C`, in the data set with Raji [25], the “inhibition (INH)” value amounted to 35%.

As for `CC(=O)/C=C/c1cc(O)ccc1O`, the Ratio in data set [26] was found to be 5. Moreover, the IC0.2 in data set [4] worked out at 4.9 µM. For `COc1cc(/C=C/C(C)=O)ccc1OCC=C(C)C`, the “inhibition (INH)” value with Raji [27] worked out at 100%. For `COc1cc(/C=C/C(C)=O)ccc1OC(C)=O`, the IC50 in data set [2] came out at 40000 µM. On to `COc1cc(C(CC(C)=O)Sc2ccccc2)ccc1O` (stereo not drawn), for which, in [14], the IC50 worked out at 6.5 µM. With `CC(=O)C#Cc1ccccc1` [4-PHENYL-3-BUTYN-2-ONE], the IC50 in the data set on Raji [6] was found to be 48 molar ratio.

For `COc1cccc(/C=C/C(C)=O)c1O`, the IC50 in the data set on Raji [6] is recorded as 50 molar ratio.

Turning to `COc1cc(/C=C/C(=O)/C=C/c2ccc3c(c2)C(=O)N(C2CCC(=O)NC2=O)C3=O)ccc1O` (stereo not drawn), the inhibition of growth at 10 µM in [20], in data set [21] and in [22] was at least 90% each time. Turning to `CC(C)Cc1ccc(C(C)C(=O)O)cc1` (stereo not drawn) [IBUPROFEN], the inhibition in vivo at 1000 µmol/kg in the data set on Mus musculus amounted to 69%. Besides, in the data set on Rattus norvegicus, the “inhibition (INH)” value is listed as 73%. Turning to `COc1cc(C(CC(C)=O)[Se]c2ccccc2)ccc1O` (stereo not drawn), the IC50 in [14] amounted to 8 µM.
